Measured values: US7049292B2, “Therapeutically effective peptides related to preproinsulin” (King's College London, priority 2004, dated 2006)
Several values for one entry are separate records, joined by “and”; a condition that tells them apart may be missing. Identical values can stand only once. Like-named read-outs stand apart in the source and are kept apart here.

Experiments:
[1] = test system: pathogenic (IFN-γ) CD4+ T lymphocytes in PBMCs; test: IFN-γ ELISPOT analysis of PBMCs cultured with peptide; format: cell-based, human; conditions: for Prevalence of IFN-γ responses, Totals (%) / Prevalence of IFN-γ responses, Totals (responders/tested): positive response SI≧3.0; for IFN-γ response, stimulation index (SI): PBMCs, peptide 10 μM
[2] = test system: anti-inflammatory (IL-10 secreting) CD4+ T lymphocytes in PBMCs; format: cell-based, human; conditions: for IL-10 response, stimulation index (SI): PBMCs, peptide 10 μM
[3] = T1DM patients with HLA-DR4 alleles
[4] = T1DM patients with non-DR4 alleles
[5] = patient #6, T1DM with HLA-DR4 alleles
[6] = patient #24, T1DM with HLA-DR4 alleles
[7] = patient #27, T1DM with non-DR4 alleles

## SFYLKNVQTQETRTLTQFHF [853–72, IA-2 peptide eluted from HLA-DR4]
[1]; [3]
  Prevalence of IFN-γ responses, Totals (%): (28) %
  Prevalence of IFN-γ responses, Totals (responders/tested): 7/25
[1]; [4]
  Prevalence of IFN-γ responses, Totals (%): (18) %
  Prevalence of IFN-γ responses, Totals (responders/tested): 2/11
[1]; non-diabetic control subject C9
  IFN-γ response, stimulation index (SI): 4.7
[1]; non-diabetic control subjects
  Prevalence of IFN-γ responses, Totals (%): (7) %
  Prevalence of IFN-γ responses, Totals (responders/tested): 1/14
[1]; patient #1, T1DM with HLA-DR4 alleles
  IFN-γ response, stimulation index (SI): 10.0
[1]; patient #3, T1DM with HLA-DR4 alleles
  IFN-γ response, stimulation index (SI): 10
[1]; [5]
  IFN-γ response, stimulation index (SI): 6.6
[1]; patient #9, T1DM with HLA-DR4 alleles
  IFN-γ response, stimulation index (SI): 5.2
[1]; patient #13, T1DM with HLA-DR4 alleles
  IFN-γ response, stimulation index (SI): 3.6
[1]; [6]
  IFN-γ response, stimulation index (SI): 48.3
[1]; [7]
  IFN-γ response, stimulation index (SI): 3.1
[1]; patient #34, T1DM with non-DR4 alleles
  IFN-γ response, stimulation index (SI): 3.7
[2]
  Prevalence of IL-10 responses, Totals (responders/tested): 2/17 and 2/7 and 2/14
[2]; non-diabetic control subject C5
  IL-10 response, stimulation index (SI): 4.7
[2]; non-diabetic control subject C8
  IL-10 response, stimulation index (SI): 66.0
[2]; [5]
  IL-10 response, stimulation index (SI): 4.3
[2]; [6]
  IL-10 response, stimulation index (SI): 9.0
[2]; [7]
  IL-10 response, stimulation index (SI): 20.0
[2]; patient #35, T1DM with non-DR4 alleles
  IL-10 response, stimulation index (SI): 9.6
